From ChEMBL document CHEMBL1134900, “Substituted 3-amino biaryl propionic acids as potent VLA-4 antagonists” (Bioorg Med Chem Lett, 2002) come the findings set out here.

Series [1] is described as follows: Compound was tested for its plasma volume distribution in Sprague Dawley rats. The settings on record: rat.
Series [2] in a line: Compound was tested for its plasma half life in Sprague Dawley rats. The settings on record: rat.
Series [3] can be described thus: Compound was tested for its plasma clearance rate in Sprague Dawley rats. The note with it: rat.
Another series can be described thus: in vivo. The settings on record: rhesus monkey, plasma, iv, 0.75 mg/kg.

Description for in vivo: Compound was tested for its plasma clearance rate in rhesus monkey at a dose of 0.75 mg/kg iv/ 1.5 mg/kg po

The Vd is a proportionality between amount in the body and measured concentration, not a real space. A low value points to confinement near the circulation. As usually defined, the half-life is how long it takes for the measured level to halve. Lower therefore signals fast loss. As usually defined, the clearance is the volume of plasma or blood freed of the substance per unit of time. Read a high clearance as a high capacity for elimination. Consider `COc1ccccc1-c1ccc([C@@H](CC(=O)O)NC(=O)[C@@H]2CCN2S(=O)(=O)c2cc(Cl)cc(Cl)c2)cc1`, for which the Vd in series [1] amounted to 0.12 L/kg. The compound also had a half-life in series [2] of 2.4 h. In addition, the results for the clearance (in series [3]; in the series “in vivo”) were 5 mL/min/kg and 22.1 mL/min/kg, respectively.
Turning to `COc1cccc(OC)c1-c1ccc([C@@H](CC(=O)O)NC(=O)[C@@H]2CCCN2S(=O)(=O)c2cc(Cl)cc(Cl)c2)cc1`, the Vd in series [1] was 1.4 L/kg. For the same compound, the half-life in series [2] is 1.8 h. Further, in series [3], the clearance came to 51.6 mL/min/kg.
On the same counts, the results for `COc1ccc(F)cc1-c1ccc([C@@H](CC(=O)O)NC(=O)[C@@H]2CCCN2S(=O)(=O)c2cc(Cl)cc(Cl)c2)cc1` are 0.58 L/kg, 3 h and 13.1 mL/min/kg.
Regarding `COc1cccc(F)c1-c1ccc([C@@H](CC(=O)O)NC(=O)[C@]2(C)CCCN2S(=O)(=O)c2cc(Cl)cc(Cl)c2)cc1`, in series [1], the Vd was 0.13 L/kg. In addition, the half-life in series [2] is 1.3 h. Further, the clearance in series [3] came to 2.3 mL/min/kg.
On to `COc1cc(F)ccc1-c1ccc([C@@H](CC(=O)O)NC(=O)[C@@H]2CCCN2S(=O)(=O)c2cc(Cl)cc(Cl)c2)cc1`, for which the clearance in series [3] was determined as 14.6 mL/min/kg.
Turning to `COc1cccc(OC(F)(F)F)c1-c1ccc([C@@H](CC(=O)O)NC(=O)[C@]2(C)CCCN2S(=O)(=O)c2cc(Cl)cc(Cl)c2)cc1`, in series [1], the Vd came out at 1.1 L/kg. Also, the half-life in series [2] is 1.6 h. In series [3], this compound displayed a clearance of 24.9 mL/min/kg.
In series [1], `COc1cc(F)cc(-c2ccc([C@@H](CC(=O)O)NC(=O)[C@]3(C)CCCN3S(=O)(=O)c3cc(Cl)cc(Cl)c3)cc2)c1` came in with a Vd of 0.12 L/kg. In series [2], this compound had a half-life of 0.9 h. Further, the clearance in series [3] turned out to be 2.5 mL/min/kg.
On the same counts, the results for `COc1ccccc1-c1ccc([C@@H](CC(=O)O)NC(=O)[C@H]2CCCN2S(=O)(=O)c2cc(Cl)cc(Cl)c2)cc1` are 0.08 L/kg, 1.3 h and 1.1 mL/min/kg.
For `COc1ccc([C@@H](CC(=O)O)NC(=O)[C@@H]2CCN2S(=O)(=O)c2cc(Cl)cc(Cl)c2)cc1`, in that order: 1.5 L/kg, 1.1 h and 22.1 mL/min/kg.
With `COc1ccc(F)cc1-c1ccc([C@@H](CC(=O)O)NC(=O)[C@]2(C)CCCN2S(=O)(=O)c2cc(Cl)cc(Cl)c2)cc1`, the Vd in series [1] turned out to be 0.08 L/kg. In addition, in series [2], the half-life was 1.2 h. In series [3], this compound showed a clearance of 2.3 mL/min/kg.
In turn, `COc1cccc(F)c1-c1ccc([C@@H](CC(=O)O)NC(=O)[C@@H]2CCCN2S(=O)(=O)c2cc(Cl)cc(Cl)c2)cc1` returned a Vd in series [1] of 0.19 L/kg. This compound also had a half-life in series [2] of 0.7 h. This compound returned a clearance in series [3] of 16.3 mL/min/kg.
